Data on one substance can be found in US7521540B2, “CYR61 compositions and methods” (Munin Corporation, priority 1996, dated 2009).

One assay concerns NIH 3T3 fibroblasts. Description: Thymidine incorporation (mitogen potentiation), NIH 3T3. The assay is classed as cell-based, mouse. Conditions: bFGF 15 ng/ml or PDGF-BB 30 ng/ml. The procedure: More specifically, NIH 3T3 fibroblast cells were plated on 24-well plates at 3×10^4 cells/well and grown in DMEM with 10% fetal bovine serum (Intergen Co., Purchase, N.Y.) for 3-4 days and incubated with medium containing 0.2% FBS for the following 48 hours. The following compounds, at the parenthetically noted final concentrations, were then added to the plated cells in fresh DMEM containing 0.2% fbs and [^3H]-thymidine (1 μCi/ml final concentration; ICN Biomedicals, Inc., Costa Mesa, Calif.): bFGF (15 ng/ml), PDGF-BB (30 ng/ml), and murine Cyr61 (0.5-5 μg/ml). These compounds were added to individual plates according to the following pattern: 1) no supplementation; 2) murine Cyr61; 3) bFGF; 4) murine Cyr61 and bFGF; 5) PDGF-BB; and 6) murine Cyr61 and PDGF. After 18-20 hours of incubation, cells were washed with PBS and fixed with 10% trichloroacetic acid. DNA was dissolved in 0.1 N NaOH and thymidine incorporation was determined. […] Without any supplements, 3T3 cells incorporated approximately 1.8×10^4 cpm of [^3H]-thymidine, in the presence or absence of Cyr61. […]
DNA synthesis for HUVE cells and NIH 3T3 fibroblasts was measured by thymidine incorporation as described previously (Kireeva et al., [1996]) with minor modifications. […] Thymidine incorporation into the trichloroacetic acid-insoluble fraction was determined after 24 hour incubation. […]
In general terms: Uptake of a labelled nucleoside into DNA is a usual measure of proliferation.

Assay [1] relates to Human Microvascular Endothelial Cells. Description: In vitro migration assay for angiogenesis inhibitors. The assay is classed as cell-based. As to conditions: bFGF 10 ng/ml; Cyr61; IGF-II. As for the experimental part: As in the preceding Example, human microvascular endothelial cells (Clonetics) were used. In one series of assays, several carbohydrates and carbohydrate derivatives were analyzed. These compounds included 10 mM mannose, 10 mM mannose-6-phosphate, and 10 mM galactose. […] Cyr61 plus galactose induced the migration of approximately 74 cells per set of three high-powered fields. […] The angiogenic activity of basic FGF (10 ng/ml) was also tested, as described above, with and without mannose-6-phosphate. In the presence of 10 mM mannose-6-phosphate, bFGF induced 51 cells per set of three high-powered fields to migrate; in its absence, bFGF induced the migration of approximately 52 cells. […] The effect of mannose-6-phosphate on IGF II activity was anticipated because mannose-6-phosphate is known to compete with IGF II for their common receptor (the IGF II receptor). […] Moreover, because there is an essentially perfect correlation between the in vitro migration assay and the in vivo angiogenesis assay, described below, mannose-6-phosphate has been identified as an inhibitor of angiogenesis based on the results of the assay disclosed herein. Accordingly, the invention contemplates a method of inhibiting angiogenesis comprising the step of administering an inhibitor the angiogenic activity of Cyr61 such as mannose-6-phosphate. Assays such as that described above may also be used to screen for other inhibitors of angiogenesis which may be useful in the treatment of diseases associated with angiogenesis such as cancer, and diseases of the eye which are accompanied by neovascularization.

The test system is the same in assay [2]. Kind of assay: Endothelial cell migration, inverted modified Boyden chamber. The format is cell-based. As to conditions: 0.01-10 μg/ml. The procedure: In an alternative in vitro assay for angiogenic activity, an assay for endothelial cell migration was developed. […] Primary Human Microvascular Endothelial Cells (HMVEC PO51, Clonetics, San Diego, Calif.) were maintained in DME with 10% donor calf serum (Flow Laboratories, McLean, Va.) and 100 μg/ml endothelial celi mitogen (Biomedical Technologies Inc., Stoughton, Mass.). The cells were used between passages 10 and 15. To measure migration, cells were starved for 24 hours in DME containing 0.1% BSA, harvested, resuspended in DME with 0.1% BSA, and plated at 1.75×10^4 cells/well on the lower surface of a gelatinized 0.5 μm filter (Nucleopore Corporation, Pleasanton. Calif.) in an inverted modified Boyden chamber. After 1-2 hours at 37° C., during which time the cells were allowed to adhere to the filter, the chamber was reverted to its normal position. […] Chambers were disassembled, membranes fixed and stained, and the number of cells that had migrated to the top of the filter in 3 high-powered fields was determined. […]
To allow comparison of experiments performed on different days, migration data is reported as the percent of maximum migration towards the positive control, calculated after subtraction of background migration observed in the presence of DME plus BSA. […] Detachment was detected by counting cells on the lower face of the membrane. […]

For “bFGF: Growth factor used as positive control [reference compound]”, the “[3H]-thymidine incorporation, growth factor alone” value with NIH 3T3 fibroblasts is reported as “about 1.2×10^5 cpm”. Also, the “migrating cells, chemoattractant without mannose-6-phosphate” value in assay [1] is recorded as “approximately 52 cells”. In assay [2], the “migrated cells per three high-powered microscope fields” value was found to be 92 cells.
